Data from PMC3060409 (Biochemical and biophysical research communications, 2011).
Ends that are not written are not given here.

Legend:
SOPT1 and SOPT2 = conditions: ref [5]; cited from earlier work
SOPT1 = conditions: ref [2]; cited from earlier work
[1] = system: SOPT1 ([3H]-deltorphin II uptake in mouse RPE cells); experiment: Inhibition/stimulation of [3H]-deltorphin II uptake in mouse primary RPE cells; format: cell-based, mouse (C57/Bl6); conditions: [3H]-deltorphin II 20 nM, 30 min
[2] = system: SOPT2 ([3H]-DADLE uptake in RPE cells); experiment: Inhibition of [3H]-DADLE uptake in human RPE cells; format: cell-based
[3] = system: ARPE-19 cells (SOPT1 and SOPT2); format: cell-based, human; conditions: naloxone 1 mM, 15 min preincubation, FITC-hepcidin 2.5 μM
ferroportin mRNA [4] = experiment: Ferroportin mRNA levels, semi-quantitative RT-PCR; format: cell-based; conditions: mouse primary RPE; hepcidin 2 μg/ml, 8 h; HPRT1 internal control
HFE mRNA = HFE mRNA levels, RT-PCR; format: cell-based; conditions: mouse primary RPE; hepcidin 2 μg/ml, 8 h
ferroportin = conditions: target cells; ref [14]; cited from earlier work
ferroportin mRNA [5] = experiment: Ferroportin mRNA levels, real-time RT-PCR; format: cell-based; conditions: mouse primary RPE; hepcidin 2 μg/ml, 8 h; P < 0.001 (Fig. 4)
hemojuvelin = experiment: Hemojuvelin expression; format: cell-based; conditions: mouse RPE; hepcidin treatment; data not shown
[6] = system: SOPT2 ([3H]-DADLE uptake in mouse RPE cells); experiment: Inhibition of [3H]-DADLE uptake in mouse primary RPE cells; format: cell-based, mouse (C57/Bl6); conditions: hepcidin 25 μM, [3H]-DADLE 10 nM, 30 min
[7] = system: SOPT1 ([3H]-deltorphin II uptake in RPE cells); experiment: Inhibition of [3H]-deltorphin II uptake in human RPE cells; format: cell-based; conditions: [3H]-deltorphin II 20 nM, 30 min
transferrin = experiment: Transferrin expression; format: cell-based; conditions: mouse RPE; hepcidin treatment; data not shown
transferrin receptor 1 = experiment: Transferrin receptor 1 expression; format: cell-based; conditions: mouse RPE; hepcidin treatment; data not shown

Compound: HIV-Tat47–57: exogenous oligopeptide recognized by SOPT1 and SOPT2 (YGRKKRRQRRR; Tat; UniProt P04608 47-57, looked up, fragment)
- recognition by SOPT1 and SOPT2 (SOPT1 and SOPT2): recognize

Compound: Gly-Gly-Ile
- stimulation of SOPT1 (SOPT1): potent stimulator of SOPT1
- effect on deltorphin II uptake (stimulation) ([1]; mouse RPE cells, Gly-Gly-Ile 1 mM): stimulated deltorphin II uptake

Compound: [tyrosyl-3,5–^3H(N)]DADLE [[^3H]-DADLE]
- non-mediated diffusional component of uptake ([2]; [3H]-DADLE uptake in presence of 1 mM unlabeled DADLE, pH 7.5): < 5 % of measured total uptake

Compound: C=CCN1CC[C@]23c4c5ccc(O)c4O[C@H]2C(=O)CC[C@@]3(O)[C@H]1C5 [naloxone]
- effect on FITC-hepcidin uptake (flow cytometry) [3]: did not alter the uptake

Compound: DTHFPICIFCCGCCHRSKCGYCCKT (cysteine pairing not given here) [hepcidin]
- ferroportin mRNA levels (RT-PCR) (ferroportin mRNA [4]): significant reduction in ferroportin mRNA levels
- HFE mRNA levels (HFE mRNA): no effect on HFE mRNA levels
- binding to ferroportin with internalization and degradation (ferroportin): binds to ferroportin on target cells and that this complex gets internalized with subsequent degradation
- ferroportin mRNA levels (real-time RT-PCR) (ferroportin mRNA [5]): decrease in ferroportin mRNA levels was confirmed
- hemojuvelin expression (hemojuvelin): none of these genes was altered
- inhibition of DADLE uptake [6]: almost completely inhibited
- dose dependence of deltorphin II uptake inhibition ([7]; RPE cells, Fig. 1B): dose-dependent
- IC50 ([7]; read-out: IC50, inhibition of deltorphin II uptake, ARPE-19 cells, 25 mM HEPES/Tris pH 7.5, 140 mM NaCl, means ± S.E., three independent experiments in duplicate): 420 ± 120 nM
- dose dependence of DADLE uptake inhibition ([2]; [3H]-DADLE 10 nM, 30 min, Fig. 1C): dose-dependent
- inhibition of deltorphin II uptake ([1]; hepcidin 25 μM, mouse primary RPE): almost completely inhibited
- transferrin expression (transferrin): none of these genes was altered
- transferrin receptor 1 expression (transferrin receptor 1): none of these genes was altered
